What was measured:
human fibroblasts = experiment: Lipidic peroxidation of fibroblast cellular membranes after UVA stress (MDA, TBARS method); format: cell-based; settings: for MDA concentration: post UVA stress
Description: Principle: human fibroblasts are grown to confluence and then placed or not in contact with the GGP for 72 hours. Following this contact, the GGP is removed and the cells are exposed to oxidative stress (UVA). After a further incubation with or without the GGP, malonaldehyde (MDA) is determined by the TBARS method (Thiobarbituric Acid Reactive Substances) and the value obtained divided by the amount of cellular protein.

[1] = tested on: Normal human dermal fibroblasts; experiment: Mean telomere length of fibroblasts in natural senescence (real-time quantitative PCR); format: cell-based; settings: 1.65 ppm
Excerpt: The applicant has performed the average length measurement of the telomeres of a culture by a rapid method using PCR (Polymerase Chain Reaction) real-time quantitative.
This method relies on the use of two oligonucleotide primers specific of the telomeric repeat sequence (TTAGGG) and thus capable of hybridizing themselves to each of the two complementary strands of telomeric DNA, and then able to be amplified during the PCR cycles proportionally to the average length of telomeres of the genomic DNA of a given culture. A fluorescent molecule, intercalated into DNA double strand, is used to quantify the phenomenon (hybridization+amplification) at the end of each cycle. The parameter for evaluating the significance of this phenomenon is the Ct, cycle number of hybridization amplification necessary to reach a given fluorescence threshold above background noise.
Each Ct will be converted into an average length of telomeres, with a reference range obtained with successive dilutions from a standard solution of a synthetic oligonucleotide of 84 bases, consisting of 14 repeats of the TTAGGG sequence, each of these dilutions (or point range) being subjected to real-time quantitative PCR.
To be accurate, the assessment must take into account the number of genomes present. The latter will be appreciated by a PCR conducted in parallel with a control gene, 36B4, encoding a ribosomal phosphoprotein with two primers (oligonucleotides) specific for this gene. The Ct obtained in this PCR will be converted into a number of genomes using a standard range made from an oligonucleotide of 75 bases, representing the amplicon obtained with primers specific to 36B4.
Therefore is obtained for each total DNA extracts from a given culture, an average length of telomere per genome.
Principle: Normal human dermal fibroblasts are grown on several cell passages, in contact or not with the GGP until a strong slowdown and little or not proliferative cells. At this stage, cultures are stopped, DNA extracted and the average telomere length measured for each culture.

human dermal fibroblasts = experiment: ATP synthesized by fibroblasts in premature senescence after oxidizing stress (chemiluminescence); format: cell-based; settings: for ATP: after hydrogen peroxide stress
Description: Principle: human dermal fibroblasts at confluence received the GGP for 24 h. After this phase, they were treated with hydrogen peroxide in the presence or absence of the GGP. This stress is intended to induce premature senescence (SIPS) in cells and thus a decrease in ATP synthesis. A few hours after this stress, cells were lysed and the amount of intracellular ATP was assessed by chemiluminescence. This amount of ATP was divided by the amount of intracellular proteins.

decorin = experiment: Decorin biosynthesis in fibroblast culture (ELISA); format: cell-based, human; settings: for Decorin: 3 days, n = 5
Description: Principle: Normal human fibroblasts were brought to confluence, then contacted or not with GGP at 3, 5 or 7 ppm for 3 days. After this incubation, decorin content was assayed by ELISA in cell homogenates, and then divided by the number of cells.

tyrosinase = target: T1, tyrosinase (Homo sapiens, UniProt P14679); experiment: Residual tyrosinase activity in human melanocytes; format: cell-based; settings: for tyrosinase activity: 5 days, n = 4
T1 construct: endogenous in cells; host or cells: human melanocytes
T1 sequence (P14679 19-529): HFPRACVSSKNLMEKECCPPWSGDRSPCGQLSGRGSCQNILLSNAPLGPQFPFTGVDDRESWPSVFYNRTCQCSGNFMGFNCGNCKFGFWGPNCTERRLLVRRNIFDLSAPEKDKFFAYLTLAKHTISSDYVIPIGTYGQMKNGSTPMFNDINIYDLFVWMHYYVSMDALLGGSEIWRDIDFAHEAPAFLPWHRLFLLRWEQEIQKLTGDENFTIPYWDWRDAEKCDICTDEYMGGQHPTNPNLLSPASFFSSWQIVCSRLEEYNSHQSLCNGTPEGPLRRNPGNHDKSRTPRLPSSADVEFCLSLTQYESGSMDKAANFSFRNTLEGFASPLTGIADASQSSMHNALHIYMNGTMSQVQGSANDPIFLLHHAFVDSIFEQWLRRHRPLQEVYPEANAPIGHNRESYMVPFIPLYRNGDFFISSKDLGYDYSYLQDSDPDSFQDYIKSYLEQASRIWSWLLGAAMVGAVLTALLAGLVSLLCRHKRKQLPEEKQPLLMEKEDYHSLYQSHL
Description: Principle: Human melanocytes are seeded and placed in contact with the GGP for 5 days. After incubation, the residual tyrosinase activity and total melanin content were measured in cell homogenates, and then divided by the number of cells (melanin) or to the protein amount (tyrosinase).

collagen I = experiment: Collagen I synthesis in presenescent fibroblasts (immunofluorescence, image analysis); format: cell-based, human; settings: for collagen I: senescent cells, 11 days, n = 20 photos
Description: Principle: The collagen I synthesis was monitored in pre-senescent human dermal fibroblasts. These cells were cultured for 11 days with the GGP in a growth medium. Following this incubation, the cell layers were fixed and labeled by immunofluorescence, to visualize the network of collagen I and to quantify by image analysis on photographs. In parallel, quantification was performed on proliferating cells.

## CC(C)=CCC/C(C)=C/CC/C(C)=C/CC/C(C)=C/CCC(C)O (centres unmarked) [GGP, 6,10,14,18-tetramethylnonadeca-5,9,13,17-tetraen-2-ol]
Human fibroblasts; 3 ppm
  % Change of MDA vs post-stress control: −20%; p < 0.01
  MDA concentration: 881 +/− 36 nM/mg protein
Human fibroblasts; 5 ppm
  % Change of MDA vs post-stress control: −34%; p < 0.01
  MDA concentration: 727 +/− 39 nM/mg protein
Human fibroblasts; 7 ppm
  % Change of MDA vs post-stress control: −53%; p < 0.01
  MDA concentration: 515 +/− 11 nM/mg protein
[1]; presenescent cells, n = 3
  Mean telomere length: 8.35 +/− 0.75 kb/genome
[1]; vs presenescent control
  protection against natural telomere erosion (length vs control): +1.45 kb →
[1]; vs proliferative cells
  Telomere erosion due to aging: −2.31 kb; nsd kb/genome
Human dermal fibroblasts; 5 ppm
  Change (%) of ATP vs after-stress control: +76%; p <
  ATP: 311 +/− 80 nM/0.1 μg protein
Human dermal fibroblasts; 7 ppm
  Change (%) of ATP vs after-stress control: +460%; p <
  ATP: 988 +/− 38 nM/0.1 μg protein
decorin; 3 ppm
  Change (%) of decorin vs control: +15%; p < 0.03
  Decorin: 47578 +/− 3587 pg/10^6 cell
decorin; 5 ppm
  Change (%) of decorin vs control: +32%; p < 0.01
  Decorin: 54419 +/− 4697 pg/10^6 cell
decorin; 7 ppm
  Change (%) of decorin vs control: +41%; p < 0.01
  Decorin: 58168 +/− 5912 pg/10^6 cell
tyrosinase; 1 ppm
  Change (%) of tyrosinase activity vs control: −11%; p < 0.05
  tyrosinase activity: 6.196 +/− 0.318 U/μg prot
tyrosinase; 3 ppm
  Change (%) of tyrosinase activity vs control: −29%; p < 0.01
  tyrosinase activity: 4.956 +/− 0.129 U/μg prot
tyrosinase; 5 ppm
  Change (%) of tyrosinase activity vs control: −49%; p < 0.01
  tyrosinase activity: 3.588 +/− 0.248 U/μg prot
Collagen I; 3 ppm
  Change (%) of collagen I vs senescent cells: +367%; p < 0.01
  collagen I: 280 +/− 220 UFA/10^4 cell
Collagen I; 5 ppm
  Change (%) of collagen I vs senescent cells: +483%; p < 0.01
  collagen I: 350 +/− 290 UFA/10^4 cell
